In patent US7629317B2, “Control of growth and repair of gastro-intestinal tissues by gastrokines and inhibitors” (The University of Chicago, priority 2001, dated 2009):
Entries after “also recorded” stand apart in the source; their conditions may differ.

Assays:
IEC-18 cells = test: Growth of confluent cultures of IEC-18 cells (cell count); assay type: cell-based, rat; conditions: confluent IEC-18 cultures, FIG. 13; read-out: half-maximal concentration (K1/2) for growth stimulation
Experimental: Confluent cultures of IEC-18 cells were prepared. One day later, medium was aspirated and replaced with 5 ml of DMEM containing CS (0.5%) and insulin, without (control) or with mitogenic peptide 58-99 (8 μg/ml). Sister plates receiving 1 ml medium and different amounts of peptide 67-85 were incubated at 1 hr at 38° C. on a CO2 incubator, and then an additional 4 ml of medium was added to each dish. Peptide 58-99 was added to 2 of the 4-sister plates at each concentration of peptide 67-85, and the number of cells was counted. […] Stimulation of cell growth by mitogenic peptide 58-99 was completely abolished by preincubation of cells with 0.25 μg/ml of peptide 67-85. […] Values for the number of cells per culture are shown relative to multiplication of cells exposed to the vehicle during the same period.
Urea (6 M) was employed to release proteins from the insoluble fraction solubilize rhAMP-18 containing the His6-tag (SEQ ID NO: 16), and make it available to bind to the Ni^2+-charged resin from which it was subsequently eluted with a gradient of imidazole (0 to 200 mM). The amount of eluted rhAMP-18 was measured using the BCA assay, and the appearance of a single band at the predicted size of 19-20 kD was confirmed by SDS-PAGE followed by immunoblotting. To determine if eluted rhAMP-18 renatured to assume a structure that was mitogenic, aliquots of the eluate (following removal of urea and imidazole by dialysis) were added to cultures of IEC-18 cells and the number of cells was counted 4 days later. […] AMP peptide 77-97 refers to the mature protein; same as peptide 97-117 of human precursor protein: Table 1. These observations indicate that biologically active recombinant human AMP-18 that can be utilized in diverse clinical situations is available. The mitogenic potency of rhAMP-18 is in the nanomolar range which would be expected for a native gastric cell growth factor that participates in the maintenance and repair of the stomach in vivo.
(§1) To characterize the capacity of gastric and intestinal cells to respond to AMP-18, AGS gastric adenocarcinoma cells, HAE human gastric antrum mucosa primary cultures transformed with SV40 large T antigen, rat diploid small intestinal epithelial cells of the IEC-6 (FIG. 15) and IEC-18 lines, NCI N-87 gastric carcinoma cells, and SK-GT5 gastroesophageal adenocarcinoma cells were studied; human WI-38 fibroblasts and HeLa cells served as non-GI control cell lines. Mitogenesis was assayed by performing cell counts 3 to 4 days after exposing cells to the agent of interest, trypsinizing the culture to prepare single cells, and confirming this while counting them in a hemocytometer.

MDCK cells = test: Transepithelial electrical resistance (TER) of MDCK cell monolayers; assay type: cell-based
Experimental: Monolayer cultures of MDCK cells were grown on permeable polycarbonate filters (0.4-μm pore size) (Transell) in DMEM containing FBS (2%) without (control) or with peptide 77-97 (8 μg/ml) for 8 days. TER was measured 24 hr after the cells were plated, and at specified times thereafter using an epithelial volt-ohm meter (EVOM, Millipore). Following each measurement, medium containing FBS without or with peptide was changed (0, 48, and 144 hr), and additional peptide 77-97 (8 μg/ml) was added at 30 and 72 hr. At 72 hr, TER in cultures that received peptide 77-97 was twice as high as in control cultures. Values are means for 3 cultures; variance is <10% of the mean. TER was measured from 3 different areas on the filter.
Panel A: When a stable TER was reached (330 Ω·cm^2) in MDCK cell monolayers the medium was changed to DMEM containing FBS (0.2%), and either peptide 77-97 (8 μg/ml) or EGF (50 ng/ml). After 18 hr, peptide 77-97 or EGF were added to the specified wells. One hour later monochloramine (0.1 mM), like the other agents, was added to the apical and basal compartments of the Transwell. […] Panels B, C: Caco2/bbe (C2) subclone monolayers were grown on collagen-coated polycarbonate filters until a stable TER was reached (225 Ω·cm^2). Spent medium was replaced with fresh medium containing FBS (0.1%) alone or with peptide 77-97 (8 μg/ml). After 18 hr, monochloramine (0.3 mM, B) or indomethacin (0.1 mM, C) was added to both compartments of the Transwell. At time 0, cultures received either vehicle (control), vehicle plus oxidant or indomethacin, or peptide 77-97 and oxidant or indomethacin. TER of injured cultures treated with vehicle decreased by ˜35% at 90 min, whereas peptide-treated cultures declined ˜10%.

[1] = system: tyrosine phosphorylation, p38 MAP kinase, hsp25, JNK1/2, ERK1/2; test: Phosphorylation of signaling proteins in IEC-18 cells (immunoblot); assay type: cell-based, rat
Experimental: To find signaling molecules by which AMP peptide mediates its biological effects, it was asked if the peptide stimulates tyrosine phosphorylation in GI epithelial cells. IEC-18 cells were treated with AMP peptide for different periods of time, the cells were then lysed, the proteins extracted and separated on SDS-polyacrylamide gels, blotted, and the blot was probed with 4G10 anti-phosphotyrosine monoclonal antibody.
First the effect of AMP peptide on phosphorylation of p38 MAPK in IEC-18 cells was examined. After exposure to the peptide (8 μg/ml) for up to 2 hr, the cells were lysed, the proteins were extracted, and Western blot analysis was performed using anti-phospho-specific p38 antibody. Then the membrane was stripped and reprobed with anti-p38 antibody. […] Next, to see if AMP peptide stimulated phosphorylation of hsp25, a specific anti-phospho-hsp25 antibody (Affinity BioReagents) was used to probe a blot prepared using AMP peptide-treated IEC-18 cells as above.

NCI N-87 cells = test: Growth of NCI N-87 gastric carcinoma cells; assay type: cell-based; conditions: concentration-dependent
Experimental: as §1

SK-GT5 cells = test: Growth of SK-GT5 gastroesophageal adenocarcinoma cells; assay type: cell-based; conditions: concentration-dependent
Experimental: as §1

Helicobacter pylori = test: Growth inhibition on a bacterial lawn (filter diffusion); assay type: cell-based; conditions: solution on filter
Experimental: To determine if AMP peptide inhibits growth of H. pylori, a lawn of bacteria was prepared on a culture dish. A small circular filter was placed in the center of the dish, a solution of a test agent was placed on the filter so it diffused onto the lawn, and its effect on bacterial growth around the filter was measured. AMP peptide 77-97 (SEQ ID NO: 12) (Table 1), a scrambled version of this AMP peptide (negative control) (SEQ ID NO: 19), or the antibiotic clarithromycin (positive control) was added to a filter on different cultures. […] In addition, AMP peptide could serve as a therapeutic agent to treat H. pylori infections in the stomach, and thereby prevent the capacity of this organism to cause gastritis, gastric ulcers, and gastric adenocarcinomas.

Staphylococcus aureus = test: Growth of other bacteria and fungi; assay type: cell-based
Streptococcus agalactiae = test: Growth of other bacteria and fungi; assay type: cell-based

LDALVKEKKLQGKGPGGPPPK [97–117, peptide 77-97 of the mature protein, same as 97-117 of the human precursor]
EC50 (IEC-18 cells): ~300 nM | maturation of TER (MDCK cells; by 24 hr and to a greater extent thereafter): increases TER | TER relative to control cultures (MDCK cells; peptide 8 μg/ml, at 72 hr): twice as high | phospho (P)-hsp25 ([1]; 30 min): stimulated the appearance | activation (phosphorylation) of JNK1/2 and ERK1/2 ([1]; JNKs after 10 min, ERKs at 20 min, listed as AMP peptide): rapidly activated | total hsp25 ([1]; after 1 hr): increase | total p38 MAPK ([1]; peptide 8 μg/ml): no change | p38 MAP kinase phosphorylation ([1]; peptide 8 μg/ml, 30 min, listed as AMP peptide): striking increase; also recorded: increased | protein tyrosine phosphorylation ([1]; peptide 8 μg/ml, two min): tyrosine phosphorylation of several proteins | growth of NCI N-87 cells (NCI N-87 cells): stimulated | growth of SK-GT5 cells (SK-GT5 cells): stimulated | growth of H. pylori lawn (Helicobacter pylori; listed as AMP peptide): inhibited growth | growth of H. pylori lawn (Helicobacter pylori; listed as AMP peptide 77-97): inhibited | growth of Staphylococcus aureus (Staphylococcus aureus): did not alter the growth | growth of Streptococcus agalactiae (Streptococcus agalactiae): did not alter the growth
